Our source for the IC50 values is patent EP4567032A1, “KIF18A INHIBITOR COMPOUND, AND PHARMACEUTICAL COMPOSITION AND PREPARATION METHOD THEREFOR AND USE THEREOF” (Changchun Genescience Pharmaceutical Co., Ltd., priority 2022, dated 2024).

The term IC50 denotes the point on the concentration scale where inhibition reaches its midpoint.

The subject of one assay is OVCAR-3 cells. Description: imaging-based nuclear count analysis (NCA) in OVCAR-3 cells. It counts as cell-based. Particulars: Homo sapiens, 96 h, cultured 4 days, Hoechst 33342 nuclear count, 0.1% DMSO. The method, then: Test name: imaging-based nuclear count analysis (NCA) in OVCAR-3 cells
• a) When the cell confluence reached 80%-90%, the cells were treated. • b) The cells were resuspended in a medium and then counted and diluted at a desired density. • c) A cell suspension containing appropriate cells was added to the 384-well plate at 30 µL/well: 600 cells/well.
• a) 30 µL of 8% fixative (final concentration 4%) was added and the plate was incubated at room temperature for 30 min. • b) The plate was centrifuged at 1000RPM for 30s. • c) The plate was washed twice with 60 µl/well PBS. • d) After immobilization, the cells were permeabilized and stained in 60 µL of a wash buffer containing 2 µg/mL Hoechst 33342 DNA dye (1% BSA, 0.2% Triton X-100, 1X PBS). • e) The plate was sealed and incubated at room temperature in the dark for 1 h. • f) It was washed with PBS 3 times. • g) 50µLPBS/well was added and the plate was scanned using HCS. • h) Data acquisition and detection
High-reading control wells: cells + 30 nL DMSO; low-reading control wells: 10 µM AM-5308.
IC50 (nM) was calculated using GraphPad Prism 8 software and the effect-dose curves of the compound were plotted. Table 1 Bioactivity data of the compound of the present application

The target in a further assay is T1, KIF18A (Homo sapiens, UniProt Q8NI77).
T1 sequence (Q8NI77 1-898): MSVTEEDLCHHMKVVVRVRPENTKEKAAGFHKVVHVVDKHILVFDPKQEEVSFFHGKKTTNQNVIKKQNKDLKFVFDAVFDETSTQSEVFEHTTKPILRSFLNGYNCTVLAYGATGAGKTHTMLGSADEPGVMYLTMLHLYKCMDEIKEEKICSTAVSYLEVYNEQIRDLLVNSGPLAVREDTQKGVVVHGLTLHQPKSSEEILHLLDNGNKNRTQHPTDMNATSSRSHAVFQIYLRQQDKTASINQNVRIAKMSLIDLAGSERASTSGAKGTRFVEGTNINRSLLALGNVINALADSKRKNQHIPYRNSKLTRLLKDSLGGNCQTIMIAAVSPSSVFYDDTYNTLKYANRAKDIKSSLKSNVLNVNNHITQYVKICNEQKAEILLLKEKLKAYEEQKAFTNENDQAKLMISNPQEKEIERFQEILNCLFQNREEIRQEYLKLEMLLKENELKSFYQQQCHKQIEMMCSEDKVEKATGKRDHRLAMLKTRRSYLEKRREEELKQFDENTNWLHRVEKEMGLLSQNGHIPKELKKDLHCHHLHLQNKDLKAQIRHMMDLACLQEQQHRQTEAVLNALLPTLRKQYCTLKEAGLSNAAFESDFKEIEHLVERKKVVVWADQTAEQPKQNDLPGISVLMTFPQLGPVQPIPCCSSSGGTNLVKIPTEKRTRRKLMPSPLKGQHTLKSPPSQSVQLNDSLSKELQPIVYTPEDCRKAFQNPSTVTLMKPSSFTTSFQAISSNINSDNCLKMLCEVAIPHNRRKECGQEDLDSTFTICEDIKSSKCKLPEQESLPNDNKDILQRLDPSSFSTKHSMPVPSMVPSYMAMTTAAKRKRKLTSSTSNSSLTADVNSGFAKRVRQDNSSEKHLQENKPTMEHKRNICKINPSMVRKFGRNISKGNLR
Description: KIF18A enzyme activity test (ADP Glo). It counts as biochemical. Particulars: ADP Glo luminescence, 60 min reaction at room temperature, 1% DMSO. The method, then: Test name: KIF18A enzyme activity test
• 1) Compound dilution and treatment: The final concentrations of AM-5308: 10000, 3333.3, 1111.1, 370.3, 123.4, 41.1, 13.7, 4.5, 1.5, 0.5 nM, the final testing concentrations of the testing compound: 10000, 3333.3, 1111.1, 370.3, 123.4, 41.1, 13.7, 4.5, 1.5 and 0.5 nM. • 2) To each well of the reaction plate, 100 nL of the diluted compound stock solution was transferred using Echo 655. The final concentration of DMSO was 1%. • 3) The reaction plate was sealed with a sealing membrane and centrifuged at 1000g for 1 min. • 4) A 2× enzyme solution was prepared with 1× reaction buffer. • 5) To each well of the reaction plate, 5 µL of 2×enzyme solution was added. The plate was sealed with a sealing membrane, centrifuged at 1000g for 1 min and left at room temperature for 15 min. • 6) A 2× ATP solution was prepared with 1× reaction buffer. • 7) To the reaction plate, 5 µL of 2×ATP solution was added, the plate was centrifuged at 1000g for 1 min, and the reaction was started. • 8) The system was allowed to react at room temperature for 60 min. • 9) 10 µL of ADP Glo reagent was added. The system was centrifuged at 1000 g for 1 min and incubated at room temperature for 60 min. • 10) 20 µL of kinase detection reagent was added. The system was centrifuged at 1000 g for 1 min, and incubated at room temperature for 60 min. • 11) The system was centrifuged at 1000 g for 1 min. • 12) The luminescence signals were read on Envision 2104.
The inhibition percentage is calculated as follows: %inhibition = 100−(Signalcmpd−SignalAve_PC)/(SignalAve_VC−SignalAve_PC) × 100 [formula] • Signalcmpd: Average value of the test compound on the reaction plate. • SignalAve_PC: Average value of the positive control (AM-5308) on the reaction plate. • SignalAve_VC: Average value of the negative control (DMSO) on the reaction plate.
IC50 was calculated and the dose-effect curve was fit: The IC50 of the compound was obtained by non-linear fitting formula with GraphPad 8.0.
Z factor > 0.5; S/B > 2. Table 2 Enzyme activity data for the compound of the present application

Molecules are shown by their SMILES.

With `O=C(Nc1cccc2c1nc1n2CCCC1)c1ccc(NS(=O)(=O)CCO)cc1N1CCC2(CC1)CC2` [Compound 22, 4-(2-hydroxyethanesulfonylamino)-2-(6-azaspiro[2.5]octan-6-yl)-N-(benzo[4,5]imidazo[1,2-a]piperidin-6-yl)benzamide], the IC50 was 143 nM with OVCAR-3 cells and 21.3 nM at KIF18A.

Consider `O=C(Nc1cccc2c1nc1n2CCC1)c1ccc(NS(=O)(=O)CCO)cc1N1CCC2(CC1)CC2` [Compound 36, N-(2,3-dihydro-1H-benzo[d]pyrrolo[1,2-a]imidazol-5-yl)-4-(2-hydroxyethanesulfonylamino)-2-(6-azaspiro[2.5]octan-6-yl)benzamide], for which the IC50 is 72.2 nM with OVCAR-3 cells and 13.7 nM on KIF18A.

Take `O=C(Nc1cccc2c1nc1n2CCC1(F)F)c1ccc(NS(=O)(=O)CCO)cc1N1CCC2(CC1)CC2` [Compound 94, N-(3,3-difluoro-2,3-dihydro-1H-benzo[d]pyrrolo[1,2-a]imidazol-5-yl)-4-(2-hydroxyethanesulfonylamino)-2-(6-azaspiro[2.5]octan-6-yl)benzamide]: the IC50 with OVCAR-3 cells stood at 36.1 nM; on KIF18A, 15.1 nM.

For `O=C(Nc1cccc2c1nc1n2C2CCC1C2)c1ccc(NS(=O)(=O)CCO)cc1N1CCC2(CC1)CC2` (centres unmarked) [Compound 96, 4-(2-hydroxyethanesulfonylamino)-2-(6-azaspiro[2.5]octan-6-yl)-N-(1,2,3,4-tetrahydro-1,4-methylenebenzo[4,5]imidazo[1,2-a]pyridin-6-yl)benzamide], the IC50 is 89.7 nM in the assay with OVCAR-3 cells and 8.97 nM against KIF18A.

Consider `O=C(Nc1cccc2c1nc1n2[C@H]2CC[C@@H]1C2)c1ccc(NS(=O)(=O)CCO)cc1N1CCC2(CC1)CC2` [Compound 96a, 4-(2-hydroxyethanesulfonylamino) -2-(6-azaspiro[2.5]octan-6-yl)-N-((1S,4R)-1,2,3,4-tetrahydro-1,4-methylenebenzo[4,5]imidazo [1,2-a]pyridin-6-yl)benzamide], for which the IC50 in the assay on OVCAR-3 cells was found to be 60.9 nM; on KIF18A, 5.35 nM.

Regarding `O=C(Nc1cccc2c1nc1n2CCCCC1)c1ccc(NS(=O)(=O)CCO)cc1N1CCC2(CC1)CC2` [Compound 97, 4-(2-hydroxyethanesulfonylamino)-2-(6-azaspiro[2.5]octan-6-yl)-N-(7,8,9,10-tetrahydro-6H-benzo[4,5]imidazo[1,2-a]azepin-4-yl)benzamide], the IC50 with OVCAR-3 cells was 58.8 nM; on KIF18A it was 9.09 nM.

On to `CC1CCCn2c1nc1c(NC(=O)c3ccc(NS(=O)(=O)CCO)cc3N3CCC4(CC3)CC4)cccc12` (centres unmarked) [Compound 98, 4-(2-hydroxyethanesulfonylamino)-N-(4-methyl-1,2,3,4-tetrahydrobenzo[4,5]imidazo[1,2-a]pyridin-6-yl)-2-(6-azaspiro[2.5]octan-6-yl)benzamide], for which the IC50 in the assay on OVCAR-3 cells was 170 nM; on KIF18A it was 26.5 nM.
